Measurements as given in patent publication US12171229B2, “Heteroaryl-triazole and heteroaryl-tetrazole compounds as pesticides” (BAYER AKTIENGESELLSCHAFT, priority 2018, dated 2024).

Key:
Format in all cases: in vivo
Ctenocephalides felis [1] = assay: Ctenocephalides felis in-vitro contact test, adult cat flea; details: 5 μg/cm^2 (=500 g/ha), after 48 hours, adult cat fleas, read-out: efficacy (fleas dead or moribund)
Outline: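 Compound in acetone coated onto inner walls of glass tubes, e.g. 900 ppm giving 5 μg/cm². After drying, 5–10 adult C. felis added per tube and held at room temperature. At 48 h, fleas unable to escape a 45–50 °C heating plate within 5 min scored dead/moribund, giving % efficacy.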

Boophilus microplus = Boophilus microplus injection test; details: Rhipicephalus microplus, 168 h; 20 μg/animal injected into the abdomen; adult engorged female ticks; egg deposition after 7 days; read-out: efficacy (infertile eggs)
Outline: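 Five engorged adult female ticks received a 1 μl abdominal injection of compound in DMSO. They were then held in a climate chamber, with egg deposition checked after 7 days. Unclear eggs were kept until hatching at about 42 days, and efficacy was scored as the percentage of infertile eggs.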

Ctenocephalides felis [2] = assay: Ctenocephalides felis oral test; details: 48 h, 100 ppm in cattle blood, after 2 days, adult unfed cat fleas
Outline: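 About 20 unfed adult cat fleas feed through parafilm on cattle blood dosed with compound from a DMSO stock. Blood chamber at 37° C, fleas at room temperature. Percent mortality scored after 2 days.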

Diabrotica balteata = Diabrotica balteata spray test; details: Diabrotica balteata, in Triticum aestivum, 168 h, after 7 days, larvae on wheat seeds, read-out: efficacy (seedlings grown up); for pest or weed control at 80 µg/disc, 250 g/ha: 80 μg/well (=250 g/ha); for pest or weed control at 160 µg/disc, 500 g/ha: 160 μg/well (=500 g/ha)
Outline: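 Germinated wheat seeds (5 per well, 1 day on agar) sprayed with compound diluted in water containing 1000 ppm emulsifier, then infested with 10–20 D. balteata larvae. Efficacy scored after 7 days: 100% = seedlings like untreated uninfested control, 0% = no seedlings grown.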

Myzus persicae = Myzus persicae oral test; details: 120 h, after 5 days
Outline: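 Aphid mortality (%) was recorded 5 days after a mixed Myzus persicae population began sucking, through parafilm, on compound solutions (acetone stock diluted with water) combined with sugar-supplemented IPL41 medium.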

[3] = system: Aedes aegypti strain MONHEIM; assay: Aedes aegypti test (AEDSAE surface treatment & contact assay); details: 24 hours after contact, read-out: efficacy (mortality); for mortality at 4 mg/m2: surface concentration 4 mg/m^2, exposure 30 minutes; for mortality at 20 mg/m2: surface concentration 20 mg/m^2, exposure 30 minutes
Outline: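 Compound dissolved in acetone (2 mg/ml) with 2000 ppm rapeseed oil methyl ester, applied to glazed tile and dried; adult strain MONHEIM mosquitoes exposed 30 minutes. Percent mortality scored 24 hours after contact.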

[4] = system: Musca domestica strain WHO-N; assay: Musca domestica test (MUSCDO surface treatment & contact assay); details: 24 hours after contact, read-out: efficacy (mortality); for mortality at 4 mg/m2: surface concentration 4 mg/m^2, exposure 30 minutes; for mortality at 20 mg/m2: surface concentration 20 mg/m^2, exposure 30 minutes
Outline: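 Adult WHO-N flies exposed for 30 minutes on a glazed tile coated with compound dissolved in acetone (2 mg/ml) with 2000 ppm rapeseed oil methyl ester, acetone evaporated. Percent mortality read 24 hours after contact.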

[5] = system: Anopheles funestus strain FUMOZ-R; assay: Anopheles funestus test (ANPHFU surface treatment & contact assay); details: 24 hours after contact, read-out: efficacy (mortality); for mortality at 4 mg/m2: surface concentration 4 mg/m^2, exposure 30 minutes; for mortality at 20 mg/m2: surface concentration 20 mg/m^2, exposure 30 minutes
Method: Anopheles funestus Test (ANPHFU Surface Treatment & Contact Assay)
Solvent: Aceton+2000 ppm rapeseed oil methyl ester (RME)
In order to produce a sufficient, active ingredient containing solution it is necessary to solve the test compound in the solvent-mix (acetone at 2 mg/ml/RME 2000 ppm). This solution is pipetted onto a glazed tile and after evaporation of the acetone, adult mosquitoes of the species Anopheles funestus strain FUMOZ-R (Hunt et al., Med. Vet. Entomol. 2005 September; 19(3): 271-275) are placed onto the dried surface. The exposure time is 30 minutes.
Mortality in percent (%) is determined 24 hours after contact of the insects to the treated surface. 100% mortality means that all tested insects are dead, whereas 0% means that no insect died.

| SMILES | pest or weed control at 5 µg/cm2 (Ctenocephalides felis [1]) | pest or weed control at 0.02 mg (Boophilus microplus) | mortality at 100 ppm (Ctenocephalides felis [2]) | pest or weed control at 80 µg/disc, 250 g/ha (Diabrotica balteata) | pest or weed control at 160 µg/disc, 500 g/ha (Diabrotica balteata) | mortality at 4 ppm (Myzus persicae) | mortality at 20 ppm (Myzus persicae; 20 ppm) | mortality at 4 mg/m2 [3] | mortality at 20 mg/m2 [3] | mortality at 4 mg/m2 [4] | mortality at 20 mg/m2 [4] | mortality at 4 mg/m2 [5] | mortality at 20 mg/m2 [5] |
| --- | --- | --- | --- | --- | --- | --- | --- | --- | --- | --- | --- | --- | --- |
| CC(c1ncnn1-c1ccc(C#N)cn1)N(CC1CC1)C(=O)c1cc(Cl)cc(C(F)(F)F)c1 (centres unmarked) [Example I-007] | 100% | 100% | 100% | 100% | 100% | 90% | 100% | 90 to 100% | 90 to 100% | 90 to 100% | 90 to 100% | – | – |
| C[C@H](NC(=O)c1cc(Cl)cc(C(F)(F)F)c1)c1ncnn1-c1ccc(C#N)cn1 [Example I-009] | 100% | 100% | 100% | 100% | – | 100% | – | 90 to 100% | 90 to 100% | 90 to 100% | 90 to 100% | – | – |
| C[C@H](NC(=O)c1cc(Cl)cc(C(F)(F)F)c1)c1ncnn1-c1ncc(Cl)cc1F [Example I-013] | – | 100% | 100% | 100% | 100% | – | – | 90 to 100% | 90 to 100% | – | 90 to 100% | 85 to 100% | 90 to 100% |
| C[C@H](NC(=O)c1cc(Cl)cc(C(F)(F)F)c1)c1ncnn1-c1cc(C#N)ccn1 [Example I-015] | 100% | 100% | 100% | 100% | – | 100% | – | 90 to 100% | 90 to 100% | – | 90 to 100% | – | 90 to 100% |
| C[C@H](NC(=O)c1cc(F)cc(C#N)c1)c1ncnn1-c1ccc(C#N)cn1 [Example I-018] | 100% | 100% | 100% | 100% | 100% | 90% | – | 90 to 100% | 90 to 100% | 90 to 100% | 90 to 100% | 85 to 100% | 90 to 100% |
| C[C@H](NC(=O)c1cc(F)cc(C(F)(F)F)c1)c1ncnn1-c1ccc(C#N)cn1 [Example I-019] | 100% | 100% | 100% | 100% | 100% | – | – | 90 to 100% | 90 to 100% | 90 to 100% | 90 to 100% | 85 to 100% | 90 to 100% |
| C[C@H](NC(=O)c1cc(Cl)cc(C(F)(F)F)c1)c1ncnn1-c1ccc([N+](=O)[O-])cn1 [Example I-028] | – | 100% | 100% | 100% | 100% | 100% | – | 90 to 100% | 90 to 100% | 90 to 100% | 90 to 100% | 85 to 100% | 90 to 100% |
| C[C@H](NC(=O)c1cc(Cl)cc(C(F)(F)F)c1)c1ncnn1-c1ccc(NC(=O)C2CC2)cn1 [Example I-034, 3-chloro-N-[(1S)-1-(1-{5-[(cyclopropylcarbonyl)amino]pyridin-2-yl}-1H-1,2,4-triazol-5-yl)ethyl]-5-(trifluoromethyl)benzamide] | 100% | 100% | 100% | 100% | 100% | 100% | – | 90 to 100% | 90 to 100% | – | 90 to 100% | 85 to 100% | – |
| C[C@H](NC(=O)c1cc(Cl)cc(OC(F)(F)F)c1)c1ncnn1-c1ccc(C#N)cn1 [Example I-041, 3-chloro-N-{(1S)-1-[1-(5-cyanopyridin-2-yl)-1H-1,2,4-triazol-5-yl]ethyl}-5-(trifluoromethoxy)benzamide] | 100% | 100% | 100% | 100% | 100% | 100% | – | 90 to 100% | 90 to 100% | 90 to 100% | 90 to 100% | 85 to 100% | 90 to 100% |
| C[C@H](NC(=O)c1cc(Cl)cc(SC(F)(F)F)c1)c1ncnn1-c1ccc(C#N)cn1 [Example I-042] | 90% | 100% | 100% | 100% | 100% | 100% | – | 90 to 100% | 90 to 100% | 90 to 100% | 90 to 100% | 85 to 100% | 90 to 100% |
| C[C@H](NC(=O)c1cc(Cl)cc(Br)c1)c1ncnn1-c1ccc(C#N)cn1 [Example I-046] | 100% | 100% | 100% | 100% | 100% | 100% | – | 90 to 100% | 90 to 100% | 90 to 100% | 90 to 100% | 85 to 100% | 90 to 100% |
| C[C@H](NC(=O)c1cc(Cl)cc(Cl)c1)c1ncnn1-c1ccc(C#N)cn1 [Example I-047] | 100% | 100% | 100% | 100% | 100% | – | – | 90 to 100% | 90 to 100% | 90 to 100% | 90 to 100% | 85 to 100% | 90 to 100% |
| C[C@H](NC(=O)c1cc(Cl)cc(S(F)(F)(F)(F)F)c1)c1ncnn1-c1ccc(C#N)cn1 [Example I-048] | 100% | 100% | 100% | 100% | 100% | 100% | – | 90 to 100% | 90 to 100% | 90 to 100% | 90 to 100% | 85 to 100% | – |
| Cc1nc([C@H](C)NC(=O)c2cc(Cl)cc(C(F)(F)F)c2)n(-c2ccc(C#N)cn2)n1 [Example I-049] | 100% | 100% | 100% | 80% | 100% | 100% | – | 90 to 100% | 90 to 100% | 90 to 100% | 90 to 100% | – | 90 to 100% |
| Cc1nc([C@H](C)NC(=O)c2cc(C(F)(F)F)cc(C(F)(F)F)c2)n(-c2ccc(C#N)cn2)n1 [Example I-056] | 100% | 100% | 100% | 100% | 100% | 100% | – | 90 to 100% | 90 to 100% | 90 to 100% | 90 to 100% | – | – |
